The target of one experiment is T1, LATS1 (Homo sapiens, UniProt O95835).
T1 construct: purchased Carna Biosciences
T1 sequence (O95835 589-1130 limits assumed): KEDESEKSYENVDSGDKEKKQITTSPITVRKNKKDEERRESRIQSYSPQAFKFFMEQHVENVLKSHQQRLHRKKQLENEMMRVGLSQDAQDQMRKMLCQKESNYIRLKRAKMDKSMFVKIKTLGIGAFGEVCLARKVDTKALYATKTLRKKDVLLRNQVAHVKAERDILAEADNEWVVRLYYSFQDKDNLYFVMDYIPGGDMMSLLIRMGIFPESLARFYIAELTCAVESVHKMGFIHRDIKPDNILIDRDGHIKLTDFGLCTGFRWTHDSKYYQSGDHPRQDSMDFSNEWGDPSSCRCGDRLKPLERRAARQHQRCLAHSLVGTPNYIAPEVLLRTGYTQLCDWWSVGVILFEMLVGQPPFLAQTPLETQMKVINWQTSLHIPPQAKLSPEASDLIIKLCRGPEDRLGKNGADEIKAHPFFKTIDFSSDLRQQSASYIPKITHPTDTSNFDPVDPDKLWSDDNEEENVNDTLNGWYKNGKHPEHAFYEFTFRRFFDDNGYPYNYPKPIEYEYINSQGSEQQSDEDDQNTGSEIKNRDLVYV
As to the kind of experiment: Kinase Assay method (Fluorospark Kinase/ADP Multi-Assay Kit). It is filed as biochemical. How it is done:
(§1) For compound k-1:B-1 (racemate), GA-002A, GA-002B, GA-005A and GA-005B, inhibitory activity evaluation (calculation of IC50) was performed on LATS1 and LATS2 (manufactured by Carna Biosciences). The activity was measured using the Kinase Assay method described below. The compounds were added such that the test concentration of k-1:B-1 (racemate), GA-002A, GA-002B, GA-005A and GA-005B was in 8 steps (10 μM, 1 μM, 100 nM, […], 10 nM, 3 nM, 1 nM, 0.3 nM) from the final concentration of 10 μM to 0.3 nM.
(§2) As the analysis method of the data, the mean signal of the control well containing reaction components other than the evaluation compound was set to 0% inhibition, the mean signal without enzyme addition was set to 100% inhibition, and the inhibition rate was calculated from the mean signal of 2 wells of each test substance test. IC50 value was calculated using EXSUS (version 7.1.6, manufactured by CAC EXICARE Corporation).
(§3) 2 μL of a compound of the present invention solution at 2.5-fold concentration, 1 μL of substrate at 5-fold concentration (SGKtide: NH2—CKKRNRRLSVA-COOH, manufactured by SignalChem), ATP (manufactured by Sigma-Aldrich), MgCl2 (manufactured by FUJIFILM Wako Pure Chemical Corporation) solution (final concentration 10 μM, 400 μM or 5 mM), and 2 μL of kinase solution at 2.5-fold concentration (final concentration of LATS1 or LATS2 5 μg/mL), each prepared with assay buffer (20 mM HEPES, 0.01% Triton X-100, 2 mM DTT, pH 7.5), were mixed in the wells of a polypropylene 384-well plate (manufactured by Greiner Bio-One, #784900) and reacted at room temperature for 5 hr. Successively, 5 μL detection solution (Fluorospark (registered trade mark)Kinase/ADP Multi-Assay Kit; manufactured by FUJIFILM Wako Pure Chemical Corporation) was added, and the mixture was reacted at room temperature 30 min. Successively, 5 μL of a reaction quenching liquid (Fluorospark (registered trade mark) Kinase/ADP Multi-Assay Kit; manufactured by FUJIFILM Wako Pure Chemical Corporation) was added to discontinue the reaction. Thereafter, the ADP concentration of the reaction solution was quantified by EnSpire (manufactured by PerkinElmer) to detect the kinase reaction.

The target in a further experiment is T2, LATS2 (Homo sapiens, UniProt Q9NRM7).
T2 construct: purchased Carna Biosciences
T2 sequence (Q9NRM7 553-1088 limits assumed): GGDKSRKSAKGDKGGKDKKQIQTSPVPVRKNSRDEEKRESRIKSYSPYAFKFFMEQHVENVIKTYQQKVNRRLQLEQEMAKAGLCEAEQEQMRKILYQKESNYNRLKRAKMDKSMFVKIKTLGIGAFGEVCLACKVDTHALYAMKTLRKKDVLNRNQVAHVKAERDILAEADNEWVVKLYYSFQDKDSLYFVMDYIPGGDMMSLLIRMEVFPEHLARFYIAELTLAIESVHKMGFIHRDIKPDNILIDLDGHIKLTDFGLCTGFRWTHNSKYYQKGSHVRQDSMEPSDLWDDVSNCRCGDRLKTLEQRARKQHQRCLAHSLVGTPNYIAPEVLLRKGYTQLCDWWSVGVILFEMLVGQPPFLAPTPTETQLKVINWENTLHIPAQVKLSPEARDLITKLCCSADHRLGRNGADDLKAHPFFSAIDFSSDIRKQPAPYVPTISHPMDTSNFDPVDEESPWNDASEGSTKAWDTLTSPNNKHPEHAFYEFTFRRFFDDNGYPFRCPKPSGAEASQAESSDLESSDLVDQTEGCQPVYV
Described as above. The class given is biochemical. As to the method: as §1, §2, §3

Experiment [1] concerns YAP (phospho-S127 and total). Kind of experiment: YAP phosphorylation inhibitory action in SKOV3 cells (HTRF, YAP-total kit / YAP phospho-S127 kit). It is filed as cell-based, human. Conditions: 10 μM, 1 hr, Non-treatment as 100%. As to the method: Human ovarian cancer cell line SKOV3 (manufactured by DS Pharma Biomedical Co., Ltd) was precultured (single layer culture) in a 15% FBS-containing McCoy's 5a medium (manufactured by Sigma Ltd. Aldrich). The above-mentioned cells in the logarithmic growth phase were washed with PBS, a 0.25% (w/v) trypsin-1 mmol/L ethylenediaminetetraacetic acid (EDTA) solution (manufactured by Fujifilm Wako Pure Chemical Corporation) was added, and adherent cells were detached by incubating at 37° C. for 3 min. The above-mentioned medium was added and the mixture was centrifuged and resuspended in the same medium.
According to the method of patent document (WO 2014/017513), a composition of 10% FBS-containing DMEM medium (Phenol-red free, manufactured by FUJIFILM Wako Pure Chemical Corporation) containing 0.015% (w/v) deacylated gellan gum (KELCOGEL CG-LA, manufactured by SANSHO Co., Ltd.) was prepared using FCeM-series Preparation Kit (manufactured by FUJIFILM Wako Pure Chemical Corporation). Then, various cells prepared above were suspended in the above-mentioned medium composition (3D conditions) added with deacylated gellan gum or a medium without the addition (2D conditions), and seeded on a 50 μL/well (manufactured by Corning Incorporated, 96 well flat bottom plate, #3585, 2D conditions) or 25 μL/well (manufactured by Corning Incorporated, 96 well low adhesion flat bottom plate, #3474) at 100000 cells/well. The plate was allowed to stand at 37° C. in a 5% CO2 incubator, and the compound of the present invention diluted with the medium at 2 or 6 times the final concentration, DMSO, or the medium alone was added to the plate 3 hr after the seeding at 50 μL/well (2D conditions) or 5 μL/well (3D conditions) to make the final concentration of each compound 10 μM. After culture at 37° C. in a 5% CO2 incubator for 1 hr, the supernatant was aspirated, supplemented Lysis buffer (1-fold concentration, manufactured by Cisbio, YAP-total kit or YAP phospho-S127 kit) (50 μL) was added under 2D conditions, and supplemented Lysys buffer (4-fold concentration) (10 μL) was added to the culture supernatant under 3D conditions, and the mixture was stirred by a plate shaker for 30 min. Thereafter, the plate was centrifuged, 16 μL of the supernatant was transferred to a 384-well white plate (Corning, #4512), and each antibody solution (pYAP d2 antibody or Total-YAP d2 antibody, and pYAP Cryptate antibody or Total-YAP Cryptate antibody) included in the kit was added at 4 μL/well in total, and the mixture was allowed to stand at room temperature overnight. As a blank control, pYAP Cryptate antibody or Total-YAP Cryptate antibody alone was added to cells free of stimulation with compound and the mixture was treated in the same manner (Non-treatment). The next day, the wavelengths at 665 nm and 615 nm were measured in the HTRF mode of EnVision (manufactured by PerkinElmer).
The obtained signal was calculated as follows. Ratio=signal (665 nm)/signal (615 nm)×10000, ΔR=Signal(Ratio)−Background fluorescence, and the relative value with respect to ΔR of the compound non-addition group (Non-treatment) as 100% was calculated, and the phosphorylated YAP amount or total YAP amount by each compound was evaluated.
On the technique in general: Time-resolved FRET reads energy transfer from a long-lived donor to a nearby acceptor.

[2] abbreviates: Kinase Assay method, 8 steps 10 μM to 0.3 nM.

Turning to `CC/C(=N\NC(=O)[C@@H](C)Nc1cccc(O)c1)c1ccc(O)c(C)c1O` [GA-005A], the inhibition at 0.1 µM at LATS1 (100 nM, read-out: LARS1 inhibitory rate (%)) came to 96%; on LATS2 (100 nM, read-out: LARS2 inhibitory rate (%)), 99%. The inhibition at 1 µM at LATS1 (1000 nM, read-out: LARS1 inhibitory rate (%)) was 97%; on LATS2 (1000 nM, read-out: LARS2 inhibitory rate (%)), 100%. Besides, the figures for the IC50 at LATS1 (setting [2]) and against LATS2 (setting [2]) were 4.79 nM and 7.39 nM, respectively. Also, the “phosphorylated YAP (%)” value in experiment [1] (2D condition) and in experiment [1] (3D condition) was 10% in each case. For the same compound, the “total YAP (%)” value in experiment [1] (2D condition) is recorded as 91%; in experiment [1] (3D condition) it was 107%.

The record behind these values is patent US20210253518A1, “KINASE INHIBITOR” (NISSAN CHEMICAL CORPORATION, priority 2018, published 2021).
